Measured values: PMC5218480 (PLoS ONE, 2017)

Tested on: MV-4-11 cells
Assay: Gene expression microarray analysis (Affymetrix PrimeView) and GSEA
Assay type: cell-based, human
Set-up: RFU PODN (11730768_x_at) / Fold change /veh PODN (11730768_x_at) / RFU LINC00158 (11744669_a_at) / Fold change /veh LINC00158 (11744669_a_at) / RFU DUSP10 (11751237_a_at) / Fold change /veh DUSP10 (11751237_a_at) / RFU ID3 (11757404_x_at) / Fold change /veh ID3 (11757404_x_at) / RFU PLEKHG5 (11737974_s_at) / Fold change /veh PLEKHG5 (11737974_s_at) / RFU LRRC4B (11730491_at) / Fold change /veh LRRC4B (11730491_at) / RFU GIMAP4 (11747438_a_at) / Fold change /veh GIMAP4 (11747438_a_at) / RFU KRT8 (11758183_x_at) / Fold change /veh KRT8 (11758183_x_at) / RFU CNN1 (11734310_a_at) / Fold change /veh CNN1 (11734310_a_at) / RFU VPS37D (11726825_at) / Fold change /veh VPS37D (11726825_at) / RFU C10orf10 (11716522_x_at) / Fold change /veh C10orf10 (11716522_x_at) / RFU KIR2DL2 /// KIR2DL4 /// KIR2DL5A /// KIR2DL5B /// KIR2DS1 /// KIR2DS2 /// KIR2DS3 /// KIR2DS4 /// KIR3DL3 /// KIR3DL3 /// KIR3DS1 (11738374_at) / Fold change /veh KIR2DL2 /// KIR2DL4 /// KIR2DL5A /// KIR2DL5B /// KIR2DS1 /// KIR2DS2 /// KIR2DS3 /// KIR2DS4 /// KIR3DL3 /// KIR3DL3 /// KIR3DS1 (11738374_at) / RFU C1QL1 (11718748_at) / Fold change /veh C1QL1 (11718748_at) / RFU TMPRSS4 (11747572_a_at) / Fold change /veh TMPRSS4 (11747572_a_at) / RFU HAMP (11756126_x_at) / Fold change /veh HAMP (11756126_x_at) / RFU RNFT2 (11725882_a_at) / Fold change /veh RNFT2 (11725882_a_at) / RFU NR4A2 (11747474_a_at) / Fold change /veh NR4A2 (11747474_a_at) / RFU ABCC12 (11746883_a_at) / Fold change /veh ABCC12 (11746883_a_at) / RFU TMEM136 (11760407_x_at) / Fold change /veh TMEM136 (11760407_x_at) / RFU CLDN22 /// WWC2 (11732394_at) / Fold change /veh CLDN22 /// WWC2 (11732394_at) / RFU HLA-DPB1 (11760878_x_at) / Fold change /veh HLA-DPB1 (11760878_x_at) / RFU SPINT1 (11716480_a_at) / Fold change /veh SPINT1 (11716480_a_at) / RFU GAP43 (11754022_s_at) / Fold change /veh GAP43 (11754022_s_at) / RFU A4GNT (11735810_at) / Fold change /veh A4GNT (11735810_at) / RFU PRB3 (11715151_x_at) / Fold change /veh PRB3 (11715151_x_at) / RFU TUBB4B (11761932_at) / Fold change /veh TUBB4B (11761932_at) / RFU CAPN14 (11732068_a_at) / Fold change /veh CAPN14 (11732068_a_at) / RFU TMCC2 (11721928_a_at) / Fold change /veh TMCC2 (11721928_a_at) / RFU IRGQ (11745062_a_at) / Fold change /veh IRGQ (11745062_a_at) / RFU FAM174B (11720279_a_at) / Fold change /veh FAM174B (11720279_a_at) / RFU TMPRSS4 (11748680_a_at) / Fold change /veh TMPRSS4 (11748680_a_at) / RFU FAM212B (11763350_a_at) / Fold change /veh FAM212B (11763350_a_at) / RFU PLEKHG5 (11743358_a_at) / Fold change /veh PLEKHG5 (11743358_a_at) / RFU ZSCAN30 (11745921_a_at) / Fold change /veh ZSCAN30 (11745921_a_at) / RFU CMKLR1 (11741424_a_at) / Fold change /veh CMKLR1 (11741424_a_at) / RFU LOC101060620 /// MAPK8IP1 (11723275_at) / Fold change /veh LOC101060620 /// MAPK8IP1 (11723275_at) / RFU SPTSSB (11747773_x_at) / Fold change /veh SPTSSB (11747773_x_at) / RFU PRSS12 (11739890_at) / Fold change /veh PRSS12 (11739890_at) / RFU BIN1 (11741810_x_at) / Fold change /veh BIN1 (11741810_x_at) / RFU WNT11 (11732464_a_at) / Fold change /veh WNT11 (11732464_a_at) / RFU C10orf10 (11716521_a_at) / Fold change /veh C10orf10 (11716521_a_at) / RFU C5orf56 (11738089_at) / Fold change /veh C5orf56 (11738089_at) / RFU CYB561 (11721691_x_at) / Fold change /veh CYB561 (11721691_x_at) / RFU ANKRD19P (11752326_a_at) / Fold change /veh ANKRD19P (11752326_a_at) / RFU OR2T12 /// OR2T33 /// OR2T8 (11738714_s_at) / Fold change /veh OR2T12 /// OR2T33 /// OR2T8 (11738714_s_at) / RFU VCAN (11748164_a_at) / Fold change /veh VCAN (11748164_a_at) / RFU JSRP1 (11732532_at) / Fold change /veh JSRP1 (11732532_at) / RFU KRTAP10-11 (11738290_x_at) / Fold change /veh KRTAP10-11 (11738290_x_at) / RFU MYO3A (11730013_a_at) / Fold change /veh MYO3A (11730013_a_at) / RFU EBF3 (11725865_a_at) / Fold change /veh EBF3 (11725865_a_at) / RFU CAMK2N1 (11719241_x_at) / Fold change /veh CAMK2N1 (11719241_x_at) / RFU C5orf56 (11738088_a_at) / Fold change /veh C5orf56 (11738088_a_at) / RFU OLFML3 (11715873_a_at) / Fold change /veh OLFML3 (11715873_a_at) / RFU LOC100653217 /// NTM (11731650_a_at) / Fold change /veh LOC100653217 /// NTM (11731650_a_at) / RFU MAPK11 (11762145_a_at) / Fold change /veh MAPK11 (11762145_a_at) / RFU FIZ1 (11724087_x_at) / Fold change /veh FIZ1 (11724087_x_at) / RFU OASL (11726364_x_at) / Fold change /veh OASL (11726364_x_at) / RFU SOX15 (11748057_x_at) / Fold change /veh SOX15 (11748057_x_at) / RFU CD79A (11719716_a_at) / Fold change /veh CD79A (11719716_a_at) / RFU HIST1H1D (11736915_at) / Fold change /veh HIST1H1D (11736915_at) / RFU CASKIN2 (11723855_a_at) / Fold change /veh CASKIN2 (11723855_a_at) / RFU LOC730098 (11760151_x_at) / Fold change /veh LOC730098 (11760151_x_at) / RFU OR4N2 (11742367_at) / Fold change /veh OR4N2 (11742367_at) / RFU PRRT2 (11749266_a_at) / Fold change /veh PRRT2 (11749266_a_at) / RFU SNX32 (11753110_a_at) / Fold change /veh SNX32 (11753110_a_at) / RFU CDHR5 (11726645_a_at) / Fold change /veh CDHR5 (11726645_a_at) / RFU RCAN1 (11760418_a_at) / Fold change /veh RCAN1 (11760418_a_at) / RFU FAM167A (11723789_a_at) / Fold change /veh FAM167A (11723789_a_at) / RFU FAM26E (11764081_at) / Fold change /veh FAM26E (11764081_at) / RFU ISYNA1 (11749810_s_at) / Fold change /veh ISYNA1 (11749810_s_at) / RFU ACY1 (11761880_at) / Fold change /veh ACY1 (11761880_at) / RFU 11764098_at / Fold change /veh 11764098_at / RFU SAMD14 (11745864_x_at) / Fold change /veh SAMD14 (11745864_x_at) / RFU NPB (11741838_a_at) / Fold change /veh NPB (11741838_a_at) / RFU TMPRSS6 (11731388_a_at) / Fold change /veh TMPRSS6 (11731388_a_at) / RFU KRTAP10-2 (11738614_at) / Fold change /veh KRTAP10-2 (11738614_at) / RFU ARHGAP8 /// PRR5-ARHGAP8 (11727945_x_at) / Fold change /veh ARHGAP8 /// PRR5-ARHGAP8 (11727945_x_at) / RFU KRTAP5-7 /// NADSYN1 (11734609_at) / Fold change /veh KRTAP5-7 /// NADSYN1 (11734609_at) / RFU RASL12 (11751679_a_at) / Fold change /veh RASL12 (11751679_a_at) / RFU CDKN2B (11736163_a_at) / Fold change /veh CDKN2B (11736163_a_at) / RFU PRF1 (11729649_at) / Fold change /veh PRF1 (11729649_at) / RFU, ZNF638 /// ZNF638-IT1 / Fold change vs veh, ZNF638 /// ZNF638-IT1 / RFU, PANK3 / Fold change vs veh, PANK3 / RFU, SH3YL1 / Fold change vs veh, SH3YL1 / RFU, ZEB2 / Fold change vs veh, ZEB2 / RFU, NRIP1 / Fold change vs veh, NRIP1 / RFU, PTTG1IP / Fold change vs veh, PTTG1IP / RFU, CAPN2 / Fold change vs veh, CAPN2 / RFU, MED14 / Fold change vs veh, MED14 / RFU, SNORA58 / Fold change vs veh, SNORA58 / RFU, C1orf63 / Fold change vs veh, C1orf63 / RFU, LRRFIP1 / Fold change vs veh, LRRFIP1 / RFU, NDUFAF7 / Fold change vs veh, NDUFAF7 / RFU, SLC12A2 / Fold change vs veh, SLC12A2 / RFU, IBTK / Fold change vs veh, IBTK / RFU, ESF1 / Fold change vs veh, ESF1 / Fold change vs veh, TMEM50B / RFU, TAOK1 / Fold change vs veh, TAOK1 / RFU, ACBD3 / Fold change vs veh, ACBD3 / RFU, TMA16 / Fold change vs veh, TMA16 / RFU, RWDD3 / Fold change vs veh, RWDD3 / RFU, BCAT1 / Fold change vs veh, BCAT1 / RFU, EDEM3 / Fold change vs veh, EDEM3 / RFU, TMEM33 / Fold change vs veh, TMEM33 / RFU, WDR75 / Fold change vs veh, WDR75 / RFU, AHCTF1 / Fold change vs veh, AHCTF1 / RFU, TFRC / Fold change vs veh, TFRC / RFU, ZDHHC17 / Fold change vs veh, ZDHHC17 / RFU, NOM1 / Fold change vs veh, NOM1 / RFU, ARL8B / Fold change vs veh, ARL8B / RFU, ZBTB11 / Fold change vs veh, ZBTB11 / RFU, TAMM41 / Fold change vs veh, TAMM41 / RFU, KIAA1704 /// LOC100996395 / Fold change vs veh, KIAA1704 /// LOC100996395 / RFU, ING1 / Fold change vs veh, ING1 / RFU, TRMT61B / Fold change vs veh, TRMT61B / RFU, FUBP3 / Fold change vs veh, FUBP3 / RFU, TP53 / Fold change vs veh, TP53 / RFU, TNKS2 / Fold change vs veh, TNKS2 / RFU, ZFP14 / Fold change vs veh, ZFP14 / RFU, ACTR2 / Fold change vs veh, ACTR2 / RFU, PPP3R1 / Fold change vs veh, PPP3R1 / RFU, PIK3R1 / Fold change vs veh, PIK3R1 / RFU, HNRNPA1 / Fold change vs veh, HNRNPA1 / RFU, RNF170 / Fold change vs veh, RNF170 / RFU, ZNF28 / Fold change vs veh, ZNF28 / RFU, RNGTT / Fold change vs veh, RNGTT / RFU, OGT / Fold change vs veh, OGT / RFU, BRD1 / Fold change vs veh, BRD1 / RFU, MARS / Fold change vs veh, MARS / RFU, ZNF655 / Fold change vs veh, ZNF655 / RFU, FAHD1 / Fold change vs veh, FAHD1 / RFU, BDP1 / Fold change vs veh, BDP1 / RFU, LRRCC1 / Fold change vs veh, LRRCC1 / RFU, ARID1A / Fold change vs veh, ARID1A / RFU, ZNF146 / Fold change vs veh, ZNF146 / RFU, ZNF330 / Fold change vs veh, ZNF330 / RFU, GPN3 / Fold change vs veh, GPN3 / RFU, C9orf123 / Fold change vs veh, C9orf123 / RFU, N4BP2L2 / Fold change vs veh, N4BP2L2 / RFU, ARFIP1 / Fold change vs veh, ARFIP1 / RFU, FAM179B / Fold change vs veh, FAM179B / RFU, BCL10 / Fold change vs veh, BCL10 / RFU, UHRF1BP1L / Fold change vs veh, UHRF1BP1L / RFU, BET1 / Fold change vs veh, BET1 / RFU, CNOT2 / Fold change vs veh, CNOT2 / RFU, ZNF268 / Fold change vs veh, ZNF268 / Fold change vs veh, ZNF507 / RFU, DGCR2 / Fold change vs veh, DGCR2 / RFU, WDSUB1 / Fold change vs veh, WDSUB1 / Fold change vs veh, HSP90B1 /// MIR3652 / RFU, ADSS / Fold change vs veh, ADSS / RFU, GK / Fold change vs veh, GK / RFU, ZNF148 / Fold change vs veh, ZNF148 / RFU, TAF9 / Fold change vs veh, TAF9 / RFU, SLC1A5 / Fold change vs veh, SLC1A5 / RFU, SLMO2 / Fold change vs veh, SLMO2 / RFU, ABCC4 / Fold change vs veh, ABCC4 / RFU, LOC101060439 /// RAP1B / Fold change vs veh, LOC101060439 /// RAP1B / RFU, RFX7 / Fold change vs veh, RFX7 / RFU, GTPBP10 / Fold change vs veh, GTPBP10 / RFU, CNEP1R1 / Fold change vs veh, CNEP1R1 / RFU, BIVM-ERCC5 /// ERCC5 / Fold change vs veh, BIVM-ERCC5 /// ERCC5 / RFU, ILF3 / Fold change vs veh, ILF3 / RFU 11762660_at / Fold change /veh 11762660_at / RFU VCAN (11757783_s_at) / Fold change /veh VCAN (11757783_s_at) / RFU DDX43 (11728927_at) / Fold change /veh DDX43 (11728927_at) / RFU KRT8 (11758188_x_at) / Fold change /veh KRT8 (11758188_x_at) / RFU NKD1 (11759106_at) / Fold change /veh NKD1 (11759106_at) / RFU SRD5A1 (11742802_a_at) / Fold change /veh SRD5A1 (11742802_a_at) / RFU TPSAB1 /// TPSB2 (11721975_s_at) / Fold change /veh TPSAB1 /// TPSB2 (11721975_s_at) / RFU GSTM3 (11746129_a_at) / Fold change /veh GSTM3 (11746129_a_at) / RFU IL23R (11737362_x_at) / Fold change /veh IL23R (11737362_x_at) / RFU TMEM51 (11727254_a_at) / Fold change /veh TMEM51 (11727254_a_at) / RFU PIWIL2 (11732686_x_at) / Fold change /veh PIWIL2 (11732686_x_at) / RFU ORM1 (11744905_x_at) / Fold change /veh ORM1 (11744905_x_at) / RFU CCDC152 (11743942_at) / Fold change /veh CCDC152 (11743942_at) / RFU ECM1 (11717891_a_at) / Fold change /veh ECM1 (11717891_a_at) / RFU IL23R (11748794_a_at) / Fold change /veh IL23R (11748794_a_at) / RFU TNFAIP8L3 (11732012_x_at) / Fold change /veh TNFAIP8L3 (11732012_x_at) / RFU MBOAT4 (11741988_at) / Fold change /veh MBOAT4 (11741988_at) / RFU 11764193_at / Fold change /veh 11764193_at / RFU TMEM53 (11763286_at) / Fold change /veh TMEM53 (11763286_at) / RFU MAGEB2 (11727129_at) / Fold change /veh MAGEB2 (11727129_at) / RFU TMEM200A (11744735_a_at) / Fold change /veh TMEM200A (11744735_a_at) / RFU CCDC152 (11751479_a_at) / Fold change /veh CCDC152 (11751479_a_at) / RFU FAM211A (11726209_a_at) / Fold change /veh FAM211A (11726209_a_at) / RFU RGS16 (11746705_a_at) / Fold change /veh RGS16 (11746705_a_at) / RFU VCAN (11755009_s_at) / Fold change /veh VCAN (11755009_s_at) / RFU RHOB (11743442_s_at) / Fold change /veh RHOB (11743442_s_at) / RFU RGS16 (11720943_a_at) / Fold change /veh RGS16 (11720943_a_at) / RFU RGS16 (11720944_at) / Fold change /veh RGS16 (11720944_at) / RFU, VPS4B / Fold change vs veh, VPS4B / RFU, CREB1 / Fold change vs veh, CREB1 / RFU, DNAJC13 / Fold change vs veh, DNAJC13 / RFU, GNAQ / Fold change vs veh, GNAQ / RFU, CDK5R1 / Fold change vs veh, CDK5R1 / RFU, ZRANB3 / Fold change vs veh, ZRANB3 / RFU, CUL4A / Fold change vs veh, CUL4A / RFU, CCNY / Fold change vs veh, CCNY / RFU, UFL1 / Fold change vs veh, UFL1 / RFU, COG3 / Fold change vs veh, COG3 / RFU, DIAPH2 / Fold change vs veh, DIAPH2 / RFU, SKA2 / Fold change vs veh, SKA2 / RFU, AFF3 / Fold change vs veh, AFF3 / RFU, LMF1 / Fold change vs veh, LMF1 / RFU, IPO11 / Fold change vs veh, IPO11 / RFU, DFFB / Fold change vs veh, DFFB / RFU, FOXP1 / Fold change vs veh, FOXP1 / RFU, CARD8 / Fold change vs veh, CARD8 / RFU, STRN3 / Fold change vs veh, STRN3 / RFU, ADK / Fold change vs veh, ADK / RFU, RASSF2 / Fold change vs veh, RASSF2 / RFU, WIPF1 / Fold change vs veh, WIPF1 / RFU, LARP1B / Fold change vs veh, LARP1B / RFU, RASA1 / Fold change vs veh, RASA1 / RFU, RB1 / Fold change vs veh, RB1 / RFU, PPFIA1 / Fold change vs veh, PPFIA1 / RFU, MAT2A / Fold change vs veh, MAT2A / RFU, CCT5 / Fold change vs veh, CCT5 / RFU, WDR92 / Fold change vs veh, WDR92 / RFU, CUX1 / Fold change vs veh, CUX1 / RFU, TTC7A / Fold change vs veh, TTC7A / RFU, TMEM135 / Fold change vs veh, TMEM135 / RFU, DEPTOR / Fold change vs veh, DEPTOR / RFU, CPM / Fold change vs veh, CPM / RFU, DNAJB6 / Fold change vs veh, DNAJB6 / RFU, CACNA2D3 / Fold change vs veh, CACNA2D3 / RFU, DTX4 / Fold change vs veh, DTX4 / RFU, TFCP2 / Fold change vs veh, TFCP2 / RFU, GMCL1 /// GMCL1P1 / Fold change vs veh, GMCL1 /// GMCL1P1 / RFU, AEBP2 / Fold change vs veh, AEBP2 / RFU, SNHG1 /// SNORD22 /// SNORD25 /// SNORD26 /// SNORD27 /// SNORD28 /// SNORD29 /// SNORD31 / Fold change vs veh, SNHG1 /// SNORD22 /// SNORD25 /// SNORD26 /// SNORD27 /// SNORD28 /// SNORD29 /// SNORD31 / Fold change (Aza/veh), C12orf56 (ProbeSet 11735607_a_at) / Fold change (ACY-1035/veh), C12orf56 (ProbeSet 11735607_a_at) / Fold change (Aza/veh), FGFR1OP (ProbeSet 11751329_s_at) / Fold change (ACY-1035/veh), FGFR1OP (ProbeSet 11751329_s_at) / Fold change (Aza/veh), VPS36 (ProbeSet 11739960_a_at) / Fold change (ACY-1035/veh), VPS36 (ProbeSet 11739960_a_at) / RFU SYPL1 (11715823_x_at) / Fold change /veh SYPL1 (11715823_x_at) / RFU IGFBP7 (11715501_s_at) / Fold change /veh IGFBP7 (11715501_s_at) / RFU REEP3 (11722064_at) / Fold change /veh REEP3 (11722064_at) / RFU IGLL1 (11728026_x_at) / Fold change /veh IGLL1 (11728026_x_at): dose or concentration left out as unconfirmed
Details: ProbeSet 11721611_a_at; LIST D

## Nc1ccc(-c2cccs2)cc1NC(=O)c1ccc2c(c1)cc(C1CC1)n2CCN1CCOCC1 [ACY-1035]
  Fold change vs veh, IPO11: 0.84
